Assays:
Glucocorticoid receptor [1] = molecular target: T1, Glucocorticoid receptor (Homo sapiens, UniProt P04150); experiment: Antagonist activity at human GR expressed in CHO-K1 cells assessed as reduction in dexamethasone-induced response incubated for 20 hrs by luciferase reporter gene assay; assay type: cell-based
T1 sequence (P04150 whole entry): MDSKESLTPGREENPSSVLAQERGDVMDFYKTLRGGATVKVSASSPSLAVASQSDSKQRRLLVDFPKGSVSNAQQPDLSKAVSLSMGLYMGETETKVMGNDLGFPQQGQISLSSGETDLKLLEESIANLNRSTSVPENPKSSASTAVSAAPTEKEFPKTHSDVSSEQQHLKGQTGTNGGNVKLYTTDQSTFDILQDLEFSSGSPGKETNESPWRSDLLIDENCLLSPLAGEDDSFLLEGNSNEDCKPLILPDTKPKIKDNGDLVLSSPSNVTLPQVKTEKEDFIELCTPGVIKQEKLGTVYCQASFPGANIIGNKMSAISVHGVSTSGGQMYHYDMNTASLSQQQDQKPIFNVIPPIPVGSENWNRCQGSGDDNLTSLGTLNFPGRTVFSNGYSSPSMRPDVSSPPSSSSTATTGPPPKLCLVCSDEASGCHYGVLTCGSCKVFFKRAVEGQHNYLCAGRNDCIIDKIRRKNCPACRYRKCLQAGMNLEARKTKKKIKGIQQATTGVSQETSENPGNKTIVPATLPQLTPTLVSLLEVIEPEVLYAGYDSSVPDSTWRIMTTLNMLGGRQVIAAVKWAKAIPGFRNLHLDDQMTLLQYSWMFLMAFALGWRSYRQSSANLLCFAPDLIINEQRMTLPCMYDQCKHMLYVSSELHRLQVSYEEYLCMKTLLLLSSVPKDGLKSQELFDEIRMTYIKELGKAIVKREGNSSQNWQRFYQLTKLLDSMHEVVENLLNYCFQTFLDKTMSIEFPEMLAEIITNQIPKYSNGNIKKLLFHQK

Glucocorticoid receptor [2] = molecular target: T1, Glucocorticoid receptor; experiment: Agonist activity at human GR expressed in CHO-K1 cells incubated for 20 hrs by luciferase reporter gene assay; assay type: cell-based
[3] = molecular target: T2, glucocorticoid receptor (GR) (Homo sapiens, UniProt P04150); experiment: Agonist activity at human GR expressed in CHO-K1 cells incubated for 20 hrs by luciferase reporter gene assay relative to dexamethasone; assay type: cell-based; conditions: CHO-K1 cells expressing human GR
T2 sequence (P04150 whole entry): T1 sequence (P04150 whole entry)

Androgen receptor = molecular target: T3, Androgen receptor (Homo sapiens, UniProt P10275); experiment: Agonist activity at AR (unknown origin) expressed in human LNCaP cells incubated for 20 hrs by luciferase reporter gene assay; assay type: cell-based
T3 sequence (P10275 whole entry): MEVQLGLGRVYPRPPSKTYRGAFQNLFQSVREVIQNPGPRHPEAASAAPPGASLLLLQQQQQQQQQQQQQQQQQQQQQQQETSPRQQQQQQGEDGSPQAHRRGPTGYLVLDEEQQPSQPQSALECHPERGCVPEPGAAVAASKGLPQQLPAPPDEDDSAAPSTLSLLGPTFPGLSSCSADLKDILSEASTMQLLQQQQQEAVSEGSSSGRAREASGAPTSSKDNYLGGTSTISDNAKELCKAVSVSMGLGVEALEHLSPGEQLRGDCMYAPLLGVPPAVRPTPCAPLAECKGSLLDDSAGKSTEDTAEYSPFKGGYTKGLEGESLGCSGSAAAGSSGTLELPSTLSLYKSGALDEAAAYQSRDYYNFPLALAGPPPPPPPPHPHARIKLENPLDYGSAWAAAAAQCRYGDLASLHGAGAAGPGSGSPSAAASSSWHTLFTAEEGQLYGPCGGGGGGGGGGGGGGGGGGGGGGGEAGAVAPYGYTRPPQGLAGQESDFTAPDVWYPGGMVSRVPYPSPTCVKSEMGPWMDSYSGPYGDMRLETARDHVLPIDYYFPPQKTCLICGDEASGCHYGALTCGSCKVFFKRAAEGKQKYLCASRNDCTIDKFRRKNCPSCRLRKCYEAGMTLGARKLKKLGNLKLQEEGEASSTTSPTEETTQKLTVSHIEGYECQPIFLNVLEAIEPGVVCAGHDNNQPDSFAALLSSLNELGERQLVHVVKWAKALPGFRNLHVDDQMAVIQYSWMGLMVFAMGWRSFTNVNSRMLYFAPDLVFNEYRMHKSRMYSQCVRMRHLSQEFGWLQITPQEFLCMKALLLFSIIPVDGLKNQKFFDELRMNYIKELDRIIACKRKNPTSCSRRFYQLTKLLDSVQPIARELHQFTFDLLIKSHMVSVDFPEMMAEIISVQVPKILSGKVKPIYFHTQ

androgen receptor (AR) = molecular target: T4, androgen receptor (AR) (Homo sapiens, UniProt P10275); experiment: Agonist activity at AR (unknown origin) expressed in human LNCaP cells incubated for 20 hrs by luciferase reporter gene assay relative to mifepristone; assay type: cell-based; conditions: human LNCaP cells expressing AR
T4 sequence (P10275 whole entry): T3 sequence (P10275 whole entry)

[4] = Clearance in rat at 0.5 mg/kg, iv; assay type: ADME, organism-based; conditions: in vivo
[5] = Volume of distribution at steady state in rat at 0.5 mg/kg, iv; assay type: ADME, organism-based; conditions: in vivo, read-out: Vdss
[6] = Half life in rat at 0.5 mg/kg, iv; assay type: ADME, organism-based; conditions: in vivo
[7] = Oral bioavailability in rat at 5 mg/kg; assay type: ADME, organism-based; conditions: in vivo

CC#C[C@]1(O)CC[C@H]2[C@@H]3CCC4=CC(=O)CCC4=C3[C@@H](CC)C[C@@]21C
IC50 (Glucocorticoid receptor [1]): > 5000 nM
EC50 (Glucocorticoid receptor [2]): 57 nM
Emax at 20 h [3]: 36%
EC50 (Androgen receptor): > 2500 nM
Emax at 20 h (androgen receptor (AR)): 47%

CC(C)(C)C#C[C@]1(O)CC[C@H]2[C@@H]3CCC4=CC(=O)CCC4=C3[C@@H](c3ccc(N4CCOCC4)cc3)C[C@@]21C
IC50 (Glucocorticoid receptor [1]): 13.3 nM
EC50 (Glucocorticoid receptor [2]): > 2500 nM
Emax at 20 h [3]: 1.5%
EC50 (Androgen receptor): > 2500 nM
Emax at 20 h (androgen receptor (AR)): 18.7%

CCC#C[C@]1(O)CC[C@H]2[C@@H]3CCC4=CC(=O)CCC4=C3[C@@H](c3ccc(N(C)C)cc3)C[C@@]21C
IC50 (Glucocorticoid receptor [1]): 8.5 nM
EC50 (Glucocorticoid receptor [2]): > 2500 nM
Emax at 20 h [3]: 2.1%
EC50 (Androgen receptor): 30 nM
Emax at 20 h (androgen receptor (AR)): 101%

COc1ccc([C@H]2C[C@@]3(C)[C@@H](CC[C@@]3(O)C#CC(C)(C)C)[C@@H]3CCC4=CC(=O)CCC4=C32)cc1
IC50 (Glucocorticoid receptor [1]): 16.6 nM
EC50 (Glucocorticoid receptor [2]): > 2500 nM
Emax at 20 h [3]: 1.1%
EC50 (Androgen receptor): > 2500 nM
Emax at 20 h (androgen receptor (AR)): 9.8%

CCc1ccc([C@H]2C[C@@]3(C)[C@@H](CC[C@@]3(O)C#CC(C)(C)C)[C@@H]3CCC4=CC(=O)CCC4=C32)cc1
IC50 (Glucocorticoid receptor [1]): 17.5 nM
EC50 (Glucocorticoid receptor [2]): > 2500 nM
Emax at 20 h [3]: 1.5%
EC50 (Androgen receptor): > 2500 nM
Emax at 20 h (androgen receptor (AR)): 20%
clearance [4]: 6.83 mL/min/kg
Vd [5]: 1.7 L/kg
half-life [6]: 3.4 h
bioavailability [7]: 0%

CN(C)c1cccc([C@H]2C[C@@]3(C)[C@@H](CC[C@@]3(O)C#CC(C)(C)C)[C@@H]3CCC4=CC(=O)CCC4=C32)c1
IC50 (Glucocorticoid receptor [1]): 205 nM
EC50 (Glucocorticoid receptor [2]): > 2500 nM
Emax at 20 h [3]: 1.3%
EC50 (Androgen receptor): > 2500 nM
Emax at 20 h (androgen receptor (AR)): 7.5%

CC(C)(C)C#C[C@]1(O)CC[C@H]2[C@@H]3CCC4=CC(=O)CCC4=C3[C@@H](c3ccc(N4CCS(=O)(=O)CC4)cc3)C[C@@]21C
IC50 (Glucocorticoid receptor [1]): 16.7 nM
EC50 (Glucocorticoid receptor [2]): > 2500 nM
Emax at 20 h [3]: 1.8%
EC50 (Androgen receptor): > 2500 nM
Emax at 20 h (androgen receptor (AR)): 23%

COc1cc([C@H]2C[C@@]3(C)[C@@H](CC[C@@]3(O)C#CC(C)(C)C)[C@@H]3CCC4=CC(=O)CCC4=C32)ccc1N(C)C
IC50 (Glucocorticoid receptor [1]): 48 nM
EC50 (Glucocorticoid receptor [2]): > 2500 nM
Emax at 20 h [3]: 1%
EC50 (Androgen receptor): > 2500 nM
Emax at 20 h (androgen receptor (AR)): 5.7%

CN(C)c1cc(F)c([C@H]2C[C@@]3(C)[C@@H](CC[C@@]3(O)C#CC(C)(C)C)[C@@H]3CCC4=CC(=O)CCC4=C32)c(F)c1
IC50 (Glucocorticoid receptor [1]): 12.4 nM
EC50 (Glucocorticoid receptor [2]): > 2500 nM
Emax at 20 h [3]: 1.3%
EC50 (Androgen receptor): > 2500 nM
Emax at 20 h (androgen receptor (AR)): 11%

CC#C[C@]1(O)CC[C@H]2[C@@H]3CCC4=CC(=O)CCC4=C3[C@@H](C3CCCCC3)C[C@@]21C
IC50 (Glucocorticoid receptor [1]): 18.1 nM
EC50 (Glucocorticoid receptor [2]): > 2500 nM
Emax at 20 h [3]: 9.3%
EC50 (Androgen receptor): > 2500 nM
Emax at 20 h (androgen receptor (AR)): 26%

CN(C)c1ccc([C@H]2C[C@@]3(C)[C@@H](CC[C@@]3(O)C#CC(F)(F)F)[C@@H]3CCC4=CC(=O)CCC4=C32)cc1
IC50 (Glucocorticoid receptor [1]): 11.2 nM
EC50 (Glucocorticoid receptor [2]): > 2500 nM
Emax at 20 h [3]: 2.4%
EC50 (Androgen receptor): 54 nM
Emax at 20 h (androgen receptor (AR)): 117%

Cc1cc([C@H]2C[C@@]3(C)[C@@H](CC[C@@]3(O)C#CC(C)(C)C)[C@@H]3CCC4=CC(=O)CCC4=C32)ccc1N(C)C
IC50 (Glucocorticoid receptor [1]): 28 nM
EC50 (Glucocorticoid receptor [2]): > 2500 nM
Emax at 20 h [3]: 1.2%
EC50 (Androgen receptor): > 2500 nM
Emax at 20 h (androgen receptor (AR)): 17%

CC(C)C#C[C@]1(O)CC[C@H]2[C@@H]3CCC4=CC(=O)CCC4=C3[C@@H](c3ccc(N(C)C)cc3)C[C@@]21C
IC50 (Glucocorticoid receptor [1]): 26 nM
EC50 (Glucocorticoid receptor [2]): > 2500 nM
Emax at 20 h [3]: 1.8%
EC50 (Androgen receptor): > 2500 nM
Emax at 20 h (androgen receptor (AR)): 50%

CN(C)c1c(F)cc([C@H]2C[C@@]3(C)[C@@H](CC[C@@]3(O)C#CC(C)(C)C)[C@@H]3CCC4=CC(=O)CCC4=C32)cc1F
IC50 (Glucocorticoid receptor [1]): 43 nM
EC50 (Glucocorticoid receptor [2]): > 2500 nM
Emax at 20 h [3]: 1.3%
EC50 (Androgen receptor): > 2500 nM
Emax at 20 h (androgen receptor (AR)): 8.8%

CC#C[C@]1(O)CC[C@H]2[C@@H]3CCC4=CC(=O)CCC4=C3[C@@H](c3cccc(N(C)C)c3)C[C@@]21C
IC50 (Glucocorticoid receptor [1]): 64 nM
EC50 (Glucocorticoid receptor [2]): > 2500 nM
Emax at 20 h [3]: 1.5%
EC50 (Androgen receptor): > 2500 nM
Emax at 20 h (androgen receptor (AR)): 5.8%

CC#C[C@]1(O)CC[C@H]2[C@@H]3CCC4=CC(=O)CCC4=C3[C@@H](c3ccccc3)C[C@@]21C
IC50 (Glucocorticoid receptor [1]): 14.2 nM
EC50 (Glucocorticoid receptor [2]): 17.4 nM
Emax at 20 h [3]: 7%
EC50 (Androgen receptor): > 2500 nM
Emax at 20 h (androgen receptor (AR)): 27%

CC(C)c1ccc([C@H]2C[C@@]3(C)[C@@H](CC[C@@]3(O)C#CC(C)(C)C)[C@@H]3CCC4=CC(=O)CCC4=C32)cc1
IC50 (Glucocorticoid receptor [1]): 16 nM
EC50 (Glucocorticoid receptor [2]): > 2500 nM
Emax at 20 h [3]: 1.5%
EC50 (Androgen receptor): > 2500 nM
Emax at 20 h (androgen receptor (AR)): 25%

CC#C[C@]1(O)CC[C@H]2[C@@H]3CCC4=CC(=O)CCC4=C3[C@@H](c3ccc(C(C)C)cc3)C[C@@]21C
IC50 (Glucocorticoid receptor [1]): 1.93 nM
EC50 (Glucocorticoid receptor [2]): > 2500 nM
Emax at 20 h [3]: 3.1%
EC50 (Androgen receptor): 13 nM
Emax at 20 h (androgen receptor (AR)): 198%

CN(C)c1ccc([C@H]2C[C@@]3(C)[C@@H](CC[C@@]3(O)C#CC(C)(C)C)[C@@H]3CCC4=CC(=O)CC[C@@H]4[C@H]32)cc1
IC50 (Glucocorticoid receptor [1]): 5.6 nM
EC50 (Glucocorticoid receptor [2]): > 2500 nM
Emax at 20 h [3]: 2.2%
EC50 (Androgen receptor): 224 nM
Emax at 20 h (androgen receptor (AR)): 22%

Cc1ccc([C@H]2C[C@@]3(C)[C@@H](CC[C@@]3(O)C#CC(C)(C)C)[C@@H]3CCC4=CC(=O)CCC4=C32)cc1
IC50 (Glucocorticoid receptor [1]): 16.1 nM
EC50 (Glucocorticoid receptor [2]): > 2500 nM
Emax at 20 h [3]: 1.5%
EC50 (Androgen receptor): > 2500 nM
Emax at 20 h (androgen receptor (AR)): 16%

Reference: ChEMBL document CHEMBL4145686, “Discovery of a Potent and Selective Steroidal Glucocorticoid Receptor Antagonist (ORIC-101)” (J Med Chem, 2018)
